Test results: patent publication US20230002372A1, “AZAINDOLE CARBOXAMIDE COMPOUNDS FOR THE TREATMENT OF MYCOBACTERIAL INFECTIONS” (THE GLOBAL ALLIANCE FOR TB DRUG DEVELOPMENT, INC., priority 2019, published 2023)
Values after ≈ are worked out from the molar mass of the structure shown.

Legend:
M tb H37Rv = assay: MIC determination against M tb H37Rv (green fluorescent protein reporter assay; MIC-MABA); type: cell-based, Mycobacterium tuberculosis; conditions: Mycobacterium tuberculosis, H37RV, 240 h, read-out: M. TB H37Rv: MIC-MABA: MIC, M. tb H37Rv; 7H9 broth; 10 days exposure; MIC = lowest concentration inhibiting fluorescence by 90%
Mycobacterium abscessus = assay: MIC against Mycobacterium abscessus (Mab_ATCC, MHII broth); type: cell-based; conditions: Mycobacteroides abscessus; Mycobacterium abscessus ATCC strain; Mueller-Hinton broth (MHII)
Excerpt: Key for Tables: MIC: Minimum Inhibitory Concentration; MABA: microplate-based Alamar Blue assay; Mab: Mycobacterium abscessus; ATCC: American Type Culture Collection; and MHII: Mueller-Hinton broth.

SMILES	MIC (M tb H37Rv) [µg/mL]	MIC (Mycobacterium abscessus) [µg/mL]
Cc1nc2[nH]c(C(=O)N[C@@H]3CCC[Si](C)(C)CC3)cc2c(F)c1Cl (single isomer, unassigned) [MPL-316A]	0.014 (≈ 0.0381 µM)	0.19 (≈ 0.516 µM)
COc1ccc2cc(C(=O)N[C@H]3CCC[Si](C)(C)CC3)[nH]c2n1 (single isomer, unassigned) [MPL-466A]	0.042 (≈ 0.127 µM)	0.25 (≈ 0.754 µM)
COc1ccc2cc(C(=O)N[C@@H]3CCC[Si](C)(C)CC3)[nH]c2n1 (single isomer, unassigned) [MPL-466B]	> 1	8 (≈ 24.1 µM)
C[C@@H]1[C@@H](NC(=O)c2cc3c(Br)ccnc3[nH]2)C[C@H]2C[C@@H]1C2(C)C [MPL-012, 4-bromo-N-[(1S,2S,3S,5R)-2,6,6-trimethylnorpinan-3-yl]-1H-pyrrolo[2,3-b]pyridine-2-carboxamide]	0.048 (≈ 0.128 µM)	4 (≈ 10.6 µM)
O=C(NC1CCCCCCC1)c1cc2c(Cl)cncc2[nH]1 [MPL-034, 4-chloro-N-cyclooctyl-1H-pyrrolo[2,3-c]pyridine-2-carboxamide]	0.25 (≈ 0.818 µM)	2 (≈ 6.54 µM)
Cc1cc(F)c2cc(C(=O)NC3CCCCCCC3)[nH]c2n1 [MPL-044, N-cyclooctyl-4-fluoro-6-methyl-1H-pyrrolo[2,3-b]pyridine-2-carboxamide]	0.013 (≈ 0.0429 µM)	2 (≈ 6.59 µM)
Cc1cc(Cl)c2cc(C(=O)N[C@H]3C[C@H]4C[C@@H]([C@@H]3C)C4(C)C)[nH]c2n1 [MPL-045, 4-chloro-6-methyl-N-[(1S,2S,3S,5R)-2,6,6-trimethylnorpinan-3-yl]-1H-pyrrolo[2,3-b]pyridine-2-carboxamide]	0.069 (≈ 0.199 µM)	2 (≈ 5.78 µM)
Cc1nc2[nH]c(C(=O)NC3CCC(C)(C)CC3)cc2c(F)c1F [MPL-067, N-(4,4-dimethylcyclohexyl)-4,5-difluoro-6-methyl-1H-pyrrolo[2,3-b]pyridine-2-carboxamide]	0.01 (≈ 0.0311 µM)	0.25 (≈ 0.778 µM)
Cc1cc(F)c2cc(C(=O)NC3CCC(C)(C)CC3)[nH]c2n1 [MPL-118, N-(4,4-dimethylcyclohexyl)-4-fluoro-6-methyl-1H-pyrrolo[2,3-b]pyridine-2-carboxamide]	0.017 (≈ 0.056 µM)	1 (≈ 3.3 µM)
Cc1cc(Cl)c2cc(C(=O)NC3CCC(C)(C)CC3)[nH]c2n1 [MPL-119, 4-chloro-N-(4,4-dimethylcyclohexyl)-6-methyl-1H-pyrrolo[2,3-b]pyridine-2-carboxamide]	0.14 (≈ 0.438 µM)	0.5 (≈ 1.56 µM)
Cc1cc2cc(C(=O)N[C@H]3C[C@H]4C[C@@H]([C@@H]3C)C4(C)C)[nH]c2cn1 [MPL-124, 5-methyl-N-[(1S,2S,3S,5R)-2,6,6-trimethylnorpinan-3-yl]-1H-pyrrolo[2,3-c]pyridine-2-carboxamide]	3.1 (≈ 9.95 µM)	16 (≈ 51.4 µM)
CC1(C)CCC(NC(=O)c2cc3cc(Cl)ncc3[nH]2)CC1 [MPL-127, 5-chloro-N-(4,4-dimethylcyclohexyl)-1H-pyrrolo[2,3-c]pyridine-2-carboxamide]	0.54 (≈ 1.77 µM)	8 (≈ 26.2 µM)
Cc1nc(F)cc2cc(C(=O)NC3CCC(C)(C)CC3)[nH]c12 [MPL-135, N-(4,4-dimethylcyclohexyl)-5-fluoro-7-methyl-1H-pyrrolo[2,3-c]pyridine-2-carboxamide]	1.5 (≈ 4.94 µM)	8 (≈ 26.4 µM)
Cc1cc(Cl)c2cc(C(=O)NC3CC4CCC3(C)C4(C)C)[nH]c2n1 (stereo not drawn) [MPL-195, 4-chloro-6-methyl-N-(1,7,7-trimethylnorbornan-2-yl)-1H-pyrrolo[2,3-b]pyridine-2-carboxamide]	0.014 (≈ 0.0405 µM)	2 (≈ 5.78 µM)
COc1cc(F)nc2[nH]c(C(=O)NC3CC[Si](C)(C)CC3)cc12 [MPL-200, N-(1,1-dimethylsilinan-4-yl)-6-fluoro-4-methoxy-1H-pyrrolo[2,3-b]pyridine-2-carboxamide]	0.072 (≈ 0.215 µM)	16 (≈ 47.7 µM)
Cc1cc(Cl)c2cc(C(=O)NC3CC[Si](C)(C)CC3)[nH]c2n1 [MPL-208, 4-chloro-N-(1,1-dimethylsilinan-4-yl)-6-methyl-1H-pyrrolo[2,3-b]pyridine-2-carboxamide]	0.0045 (≈ 0.0134 µM)	1 (≈ 2.98 µM)
Cc1cc(F)c2c(C)c(C(=O)NC3CC[Si](C)(C)CC3)[nH]c2n1 [MPL-209, N-(1,1-dimethylsilinan-4-yl)-4-fluoro-3,6-dimethyl-1H-pyrrolo[2,3-b]pyridine-2-carboxamide]	0.03 (≈ 0.09 µM)	1 (≈ 3 µM)
Cc1nc2[nH]c(C(=O)NC3CC[Si](C)(C)CC3)cc2c(F)c1F [MPL-229, N-(1,1-dimethylsilinan-4-yl)-4,5-difluoro-6-methyl-1H-pyrrolo[2,3-b]pyridine-2-carboxamide]	0.0058 (≈ 0.0172 µM)	0.12 (≈ 0.356 µM)
Cc1nc2[nH]c(C(=O)NC3CC[Si](C)(C)CC3)cc2c(Cl)c1Cl [MPL-230, 4,5-dichloro-N-(1,1-dimethylsilinan-4-yl)-6-methyl-1H-pyrrolo[2,3-b]pyridine-2-carboxamide]	0.004 (≈ 0.0108 µM)	16 (≈ 43.2 µM)
Cc1nc2[nH]c(C(=O)NC3CC[Si](C)(C)CC3)cc2c(F)c1Cl [MPL-232, 5-chloro-N-(1,1-dimethylsilinan-4-yl)-4-fluoro-6-methyl-1H-pyrrolo[2,3-b]pyridine-2-carboxamide]	0.03 (≈ 0.0848 µM)	0.38 (≈ 1.07 µM)
Cc1nc2[nH]c(C(=O)NC3CC[Si](C)(C)CC3)cc2c(C)c1Cl [MPL-239, 5-chloro-N-(1,1-dimethylsilinan-4-yl)-4,6-dimethyl-1H-pyrrolo[2,3-b]pyridine-2-carboxamide]	0.0078 (≈ 0.0223 µM)	16 (≈ 45.7 µM)
Cc1cc(Cl)c2cc(C(=O)NC3CCC[Si](C)(C)CC3)[nH]c2n1 (stereo not drawn) [MPL-274, 4-chloro-N-(1,1-dimethylsilepan-4-yl)-6-methyl-1H-pyrrolo[2,3-b]pyridine-2-carboxamide]	0.01 (≈ 0.0286 µM)	0.75 (≈ 2.14 µM)
Cc1nc2[nH]c(C(=O)NC3CC[Si](C)(C)C3)cc2c(F)c1F (stereo not drawn) [MPL-295, N-(1,1-dimethylsilolan-3-yl)-4,5-difluoro-6-methyl-1H-pyrrolo[2,3-b]pyridine-2-carboxamide]	0.024 (≈ 0.0742 µM)	0.28 (≈ 0.866 µM)
Cc1nc2[nH]c(C(=O)NC3CCC[Si](C)(C)CC3)cc2c(F)c1Cl (stereo not drawn) [MPL-316, 5-chloro-N-(1,1-dimethylsilepan-4-yl)-4-fluoro-6-methyl-1H-pyrrolo[2,3-b]pyridine-2-carboxamide]	0.015 (≈ 0.0408 µM)	0.16 (≈ 0.435 µM)
COc1ccc2cc(C(=O)NC3CC[Si](C)(C)CC3)[nH]c2n1 [MPL-387, N-(1,1-dimethylsilinan-4-yl)-6-methoxy-1H-pyrrolo[2,3-b]pyridine-2-carboxamide]	0.163 (≈ 0.513 µM)	0.5 (≈ 1.57 µM)
Cc1cc(Cl)c2cc(C(=O)NC3CC[Si](C)(C)C3)[nH]c2n1 (stereo not drawn) [MPL-401, 4-chloro-N-(1,1-dimethylsilolan-3-yl)-6-methyl-1H-pyrrolo[2,3-b]pyridine-2-carboxamide]	0.016 (≈ 0.0497 µM)	0.75 (≈ 2.33 µM)
COc1ccc2cc(C(=O)NC3CCC(C)(C)CC3)[nH]c2n1 [MPL-453, N-(4,4-dimethylcyclohexyl)-6-methoxy-1H-pyrrolo[2,3-b]pyridine-2-carboxamide]	0.284 (≈ 0.942 µM)	0.5 (≈ 1.66 µM)
C[Si]1(C)CCC(NC(=O)c2cc3ccc(OC4CC4)nc3[nH]2)CC1 [MPL-464, 6-(cyclopropoxy)-N-(1,1-dimethylsilinan-4-yl)-1H-pyrrolo[2,3-b]pyridine-2-carboxamide]	0.124 (≈ 0.361 µM)	1 (≈ 2.91 µM)
COc1cc(F)c2cc(C(=O)NC3CC[Si](C)(C)CC3)[nH]c2n1 [MPL-468, N-(1,1-dimethylsilinan-4-yl)-4-fluoro-6-methoxy-1H-pyrrolo[2,3-b]pyridine-2-carboxamide]	0.023 (≈ 0.0686 µM)	0.12 (≈ 0.358 µM)
Cc1nc2[nH]c(C(=O)NC3CC[Si](C)(C)CC3)cc2c(F)c1C [MPL-471, N-(1,1-dimethylsilinan-4-yl)-4-fluoro-5,6-dimethyl-1H-pyrrolo[2,3-b]pyridine-2-carboxamide]	0.069 (≈ 0.207 µM)	1 (≈ 3 µM)
